The assay relates to Human subcutaneous adipocytes. Description: Promotion of fat degradation (lipolysis) in human adipocytes, free glycerol in culture supernatant. In kind it is cell-based. Conditions: 30 μM test substance, 3 hours incubation at 37° C., versus 1% (v/v) DMSO control; Lipolysis Assay Kit; FIG. 1. The procedure: Human subcutaneous adipocytes (Zen-Bio, Inc.) plated onto a 96-well plate was obtained and pre-cultivated under a 5% CO2 atmosphere at 37° C. for 5 days in D-MEM/Ham's F12 Medium (1:1, v/v) containing 3% (v/v) fetal bovine serum, 15 mM HEPES (pH 7.4), 33 μM biotin, 17 μM pantothenate, 100 nM human insulin, 1 μM dexamethasone, 100 U/mL penicillin, 100 μg/mL streptomycin and 0.25 μg/mL amphotericin B. Then, an astaxanthin free form (Wako Pure Chemical Industries, Ltd.: purity 94% or more) and the astaxanthin monoester obtained in Preparation Example 1 were dissolved in dimethyl sulfoxide (DMSO) to prepare stock solutions at a concentration of 3 mM, respectively. The stock solutions were diluted to 30 μM with LIP-2 Assay Buffer (Zen-Bio, Inc.) to prepare test solutions. As a control, 1% (v/v) DMSO solution which was diluted with LIP-2 Assay Buffer was used. Each of the wells was washed with Wash Buffer (Zen-Bio, Inc.) and the test solutions were added to the wells. These wells were incubated under a 5% CO2 atmosphere at 37° C. for 3 hours. After the incubation, the amount of free glycerol in the culture supernatant was measured using a Lipolysis Assay Kit (Zen-Bio, Inc.). […]

With astaxanthin monoester, the “percentage of fat degradation promoted, (A/B)×100(%), amount of free glycerol relative to control” value is listed as “significantly increased”.
As to `CC1=C(/C=C/C(C)=C/C=C/C(C)=C/C=C/C=C(C)/C=C/C=C(C)/C=C/C2=C(C)C(=O)[C@@H](O)CC2(C)C)C(C)(C)C[C@H](O)C1=O` [astaxanthin], the “percentage of fat degradation promoted, (A/B)×100(%), amount of free glycerol relative to control” value is “significantly increased”.
